In patent US20140378416A1, “SILYL-CONTAINING HETEROCYCLIC COMPOUNDS AND METHODS OF USE THEREOF FOR THE TREATMENT OF VIRAL DISEASES” (priority 2011, published 2014):

What was measured:
[1] = test system: HCV replicon 1a Y93H; assay: Cell-based HCV replicon assay (TaqMan), genotype 1a Y93H mutant replicon; conditions: Hepatitis C virus, 72 h, read-out: 1a Y93H EC90, HCV 1a Y93H mutant replicon cells, replicon RNA by TaqMan on day 3; EC90 = concentration for ΔCT=3.2 over baseline
Protocol: (§1) Measurement of inhibition by compounds of the present invention was performed using the HCV replicon system. Several different replicons encoding different HCV genotypes or mutations were used. In addition, potency measurements were made using different formats of the replicon assay, including different ways of measurements and different plating formats. See Jan M. Vrolijk et al., A replicons-based bioassay for the measurement of interferons in patients with chronic hepatitis C, 110 J. VIROLOGICAL METHODS 201 (2003); Steven S. Carroll et al., Inhibition of Hepatitis C Virus RNA Replication by 2′-Modified Nucleoside Analogs, 278(14) J. BIOLOGICAL CHEMISTRY 11979 (2003). However, the underlying principles are common to all of these determinations, and are outlined below.
(§2) Compounds of the present invention were assayed for cell-based anti-HCV activity using the following protocol. Replicon cells were seeded at 5000 cells/well in 96-well collagen I-coated Nunc plates in the presence of the test compound. Various concentrations of test compound, typically in 10 serial 2-fold dilutions, were added to the assay mixture, with the starting concentration ranging from 250 μM to 1 μM. The final concentration of DMSO was 0.5%, fetal bovine serum was 5%, in the assay media. Cells were harvested on day 3 by the addition of 1× cell lysis buffer (Ambion cat #8721). The replicon RNA level was measured using real time PCR (TaqMan® assay). The amplicon was located in 5B. The PCR primers were: 5B.2F, ATGGACAGGCGCCCTGA (SEQ. ID NO. 1); 5B.2R, […] (SEQ. ID NO. 2); the probe sequence was FAM-labeled CACGCCATGCGCTGCGG (SEQ. ID NO. 3). GAPDH RNA was used as endogenous control and was amplified in the same reaction as NS5B (multiplex PCR) using primers and VIC-labeled probe recommended by the manufacturer (PE Applied Biosystem). The real-time […] reactions were run on ABI PRISM 7900HT Sequence Detection System using the following program: 48° C. for 30 minutes, 95° C. for 10 minutes, 40 cycles of 95° C. for 15 sec, 60° C. for 1 minute. The ACT values (CT5B-CTGAPDH) were plotted against the concentration of test compound and fitted to the sigmoid dose-response model using XLfit4 (MDL). EC50 was defined as the concentration of inhibitor necessary to achieve ΔCT=1 over the projected baseline; EC90 the concentration necessary to achieve ΔCT=3.2 over the baseline. Alternatively, to quantitate the absolute amount of replicon RNA, a standard curve was established by including serially diluted T7 transcripts of replicon RNA in the Taqman assay. All TaqMan® reagents were from PE Applied Biosystems. Such an assay procedure was described in detail in e.g. Malcolm et al., Antimicrobial Agents and Chemotherapy 50: 1013-1020 (2006).
(§3) HCV replicon EC50 assay data for various replicons and mutants was calculated for selected compounds of the present invention using this method and is provided in the tables above herein.

[2] = test system: HCV replicon 2b; assay: Cell-based HCV replicon assay (TaqMan), genotype 2b replicon; conditions: Hepatitis C virus, 72 h, read-out: 2b EC90, HCV 2b replicon cells, replicon RNA by TaqMan on day 3; EC90 = concentration for ΔCT=3.2 over baseline
Protocol: as §1, §2, §3

[3] = test system: HCV replicon 1b; assay: Cell-based HCV replicon assay (TaqMan), genotype 1b replicon; conditions: Hepatitis C virus, 72 h, HCV 1b replicon cells, replicon RNA by TaqMan on day 3; EC90 = concentration for ΔCT=3.2 over baseline
Protocol: as §1, §2, §3

[4] = test system: HCV replicon 1a; assay: Cell-based HCV replicon assay (TaqMan), genotype 1a replicon; conditions: Hepatitis C virus, 72 h, HCV 1a replicon cells, replicon RNA by TaqMan on day 3; EC90 = concentration for ΔCT=3.2 over baseline
Protocol: as §1, §2, §3

What does the source list for `COC(=O)N[C@@H](CC1CC1)C(=O)N1CCC[C@H]1c1ncc(-c2ccc(-c3ccc(-c4cnc([C@@H]5C[Si](C)(C)CN5C(=O)[C@H](CC5CC5)NC(=O)OC)[nH]4)cc3)cc2)[nH]1` [Compound 37]?
EC90 [1]: 425 nM; EC90 [2]: 888 nM; EC90 [3]: 0.03 nM

Which EC90 [1] does the source give for `COC(=O)NC1(C(=O)N2CCC[C@@H]2c2ncc(-c3ccc(-c4ccc(-c5cnc([C@H]6C[Si](C)(C)CN6C(=O)C6(NC(=O)OC)CC6)[nH]5)cc4)cc3)[nH]2)CC1` [Compound 20] here?
The EC90 was 1000 nM.

What about the EC90 [4] of the same compound?
The EC90 was 1000 nM.

And the EC90 [2]?
The EC90 was 1000 nM.

What about the EC90 [3] of the same compound?
The EC90 was 1000 nM.

How did the EC90 [1] turn out when `COC(=O)N[C@@H](CC(C)(C)C)C(=O)N1CCC[C@H]1c1ncc(-c2ccc(-c3ccc(-c4cnc([C@@H]5C[Si](C)(C)CN5C(=O)[C@H](CC(C)(C)C)NC(=O)OC)[nH]4)cc3)cc2)[nH]1` [Compound 36] was run?
Its EC90 is 617 nM.

And the EC90 [2]?
The EC90 was 434 nM.

What about the EC90 [3] of the same compound?
The EC90 was 0.03 nM.

With `COC(=O)N[C@H](C(=O)N1C[Si](C)(C)C[C@H]1c1nc(Cl)c(-c2ccc(-c3ccc(-c4[nH]c([C@@H]5C[C@H]6C[C@H]6N5C(=O)[C@@H](NC(=O)OC)C5CCOCC5)nc4Cl)cc3)cc2)[nH]1)C1CCOCC1` [Compound 54] as the compound, how does the EC90 [1] read?
Its EC90 is 2.5 nM.

And the EC90 [4]?
Its EC90 is 0.023 nM.

What about the EC90 [2] of the same compound?
The EC90 was 0.48 nM.

`CC(C)(C)OC(=O)N1C[Si](C)(C)C[C@H]1c1ncc(-c2ccc(-c3ccc(-c4[nH]c([C@@H]5C[C@H]6C[C@H]6N5C(=O)OC(C)(C)C)nc4F)cc3)cc2)[nH]1` [Compound 42] was tested. Which EC90 [1] did it give?
Its EC90 is greater than 1000 nM.

And the EC90 [4]?
Its EC90 is greater than 1 nM.

What about the EC90 [2] of the same compound?
The EC90 was greater than 1000 nM.

With `COC(=O)NC1(C(=O)N2CCC[C@H]2c2ncc(-c3ccc(-c4ccc(-c5cnc([C@@H]6C[Si](C)(C)CN6C(=O)C6(NC(=O)OC)CCC6)[nH]5)cc4)cc3)[nH]2)CCC1` [Compound 31] as the compound, how does the EC90 [1] read?
The EC90 was greater than 1000 nM.

And the EC90 [2]?
Its EC90 is greater than 1000 nM.

And the EC90 [3]?
The EC90 was 2.2 nM.

With `COC(=O)N[C@H](C(=O)N1CCC[C@H]1c1ncc(-c2ccc(-c3ccc(-c4cnc([C@@H]5C[Si](C)(C)CN5C(=O)[C@@H](NC(=O)OC)C(C)(C)OC)[nH]4)cc3)cc2)[nH]1)C(C)(C)OC` [Compound 35] as the compound, how does the EC90 [1] read?
The EC90 was greater than 1000 nM.

And the EC90 [2]?
Its EC90 is greater than 1000 nM.

What about the EC90 [3] of the same compound?
Its EC90 is 0.09 nM.

What does the source list for `COC(=O)N[C@H](C(=O)N1C[Si](C)(C)C[C@H]1c1nc(Cl)c(-c2ccc(-c3ccc(-c4[nH]c([C@@H]5C[C@H]6C[C@H]6N5C(=O)[C@@H](NC(=O)OC)C(C)C)nc4Cl)cc3)cc2)[nH]1)C(C)C` [Compound 51]?
EC90 [1]: 13.7 nM; EC90 [4]: 0.008 nM; EC90 [2]: 2.9 nM

Which EC90 [1] does the source give for `CC(C)(C)OC(=O)N1C[Si](C)(C)C[C@H]1c1ncc(-c2ccc(-c3ccc(-c4cnc([C@@H]5C[C@H]6C[C@H]6N5C(=O)OC(C)(C)C)[nH]4)cc3)cc2)[nH]1` [Compound 46] here?
The EC90 was greater than 1000 nM.

What about the EC90 [4] of the same compound?
The EC90 was greater than 1000 nM.

What about the EC90 [2] of the same compound?
The EC90 was 422 nM.

How did the EC90 [1] turn out when `CC[C@@H](O)[C@H](NC(=O)OC)C(=O)N1CCC[C@H]1c1ncc(-c2ccc(-c3ccc(-c4cnc([C@@H]5C[Si](C)(C)CN5C(=O)[C@@H](NC(=O)OC)[C@H](O)CC)[nH]4)cc3)cc2)[nH]1` [Compound 38] was run?
Its EC90 is greater than 1000 nM.

What about the EC90 [2] of the same compound?
The EC90 was greater than 1000 nM.

What about the EC90 [3] of the same compound?
Its EC90 is 0.21 nM.

For `COC(=O)N[C@H](C(=O)N1C[Si](C)(C)C[C@H]1c1ncc(-c2ccc(-c3ccc(-c4[nH]c([C@@H]5CCCN5C(=O)[C@@H](NC(=O)OC)C(C)C)nc4Cl)cc3)cc2)[nH]1)C(C)C` [Compound 64], which EC90 [1] is on record?
The EC90 was 344 nM.

What about the EC90 [4] of the same compound?
The EC90 was 0.17 nM.

And the EC90 [2]?
The EC90 was 99 nM.

For `COC(=O)N[C@@H](CSC)C(=O)N1CCC[C@H]1c1ncc(-c2ccc(-c3ccc(-c4cnc([C@@H]5C[Si](C)(C)CN5C(=O)[C@H](CSC)NC(=O)OC)[nH]4)cc3)cc2)[nH]1` [Compound 32], which EC90 [1] is on record?
Its EC90 is greater than 1000 nM.

And the EC90 [2]?
The EC90 was 144 nM.

And the EC90 [3]?
The EC90 was 0.03 nM.
